{
  "source": "patent US20090048194A1",
  "about": "“Vagal Afferent Neurons as Targets for Treatment” (Janssen Pharmaceutica N.V., priority 2005, published 2009)",
  "key": {"sham nodose neurons": {"tested_on": "sham nodose neurons", "test": "Patch clamp recording of octreotide on dissociated sham nodose neurons", "assay_type": "cell-based, Balb/c mice", "conditions": "for effect on number of action potentials at 2× rheobase: sham nodose neurons", "method": "(§1) Balb/c mice were injected intraperitoneally with the retrograde labelling agent cholera toxin B 488 3-7 days prior to experiments. Mice were then anaesthetized with ketamine/xylazine, the spinal cord removed and DRG neurons isolated (T10-T13) for electrophysiological recordings 18-24 hours after their dissociation and incubation, and mounted on the stage of an inverted microscope (Leica DMIRE2)) for both bright-field and fluorescence observation. Cholera toxin labelled neurons were identified by their green fluorescence under the N3 filter system (Leica). Whole cell currents and voltage clamp experiments were performed by using MultiClamp 7A amplifier and digitized with a DigiData 1322A converter (Axon Instruments). Stimulation and data acquisition were obtained by the pClamp 9 program (Axon Instruments). Signals were sampled at 10 kHz or 20 kHz, and low-pass filtered at 4 KHz. The series resistance was compensated. Neurons were excluded from analysis if the seal resistance or access resistance was unstable, or if they fired spontaneous action potentials.\n(§2) Borosilicate glass (Harvard) was pulled with a P97 micropipette puller (Sutter, Calif.), and fire polished by a M 200 microforge (World Precision Instrument) to a tip resistance of 5-10 MΩ. A silver-silver chloride pellet (world Precision Instrument) was placed in the recording dish as the reference electrode. The normal extracellular Kreb's solution contained (in mM): NaCl 118.0, KCl 4.7, NaH2PO4 1.0, NaHCO3 25.0, MgSO4 1.2, CaCl2 2.5, D-Glucose 11.1, with pH adjusted to 7.3 by using NaOH. The normal intracellular solution contained (in mM): HEPES 10.0, KCl 130.0, MgCl2 1.0, CaCl2 1.0, EGTA 2.0, K2ATP 2, Na3GTP 0.2, titrated with KOH to pH 7.25. The extracellular solution for isolating TTX-resistance Na currents composed of (in mM): NaCl 145.0, KCl 4.8, HEPES 10.0, MgCl2 1.0, CaCl2 2.5, D-glucose 11.1, TTX 0.0003, CdCl 0.5, 4-AP 1.0, TEA-Cl 5.0, CsCl 2.0, pH adjusted to 7.3 by using NaOH, and the corresponding intracellular solution was (in mM): EPES 10.0, CsCl 130.0, MgCl2 1.0, CaCl2 1.0, EGTA 2.0, K2ATP 2.0, Na3GTP 0.2, pH adjusted to 7.25 by using CsOH. All experiments were performed at temperature of 30° C.-33° C.\n(§3) Data were analyzed by using pClamp 9 software (Axon Instruments). Neurons were recorded in both current-clamp and voltage-clamp configurations. Voltage clamp recordings were used to generate current-voltage relationships for cells. Current clamp recordings were used to determine the rheobase for action potential firing of neurons. The number of action potentials elicited at 2× rheobase was subsequently assessed in current clamp mode.\n(§4) Nodose neurons were dissociated and cultured in preparation for patch clamp experiments as has been described elsewhere. These nodose neurons were either obtained from Balb/c mice 21 days after infection with Nb or from sham mice, thus enabling a comparison of the effects of octreotide on both sham and Nb-infected nodose neurons.\n(§5) Octreotide (1 μM) was applied to individual neurons via a fast perfusion system. Octreotide's effects were recorded on the cell's resting membrane potential (RMP) and the number of action potentials fired at 2× rheobase of each neuron."}, "[1]": {"tested_on": "Nb-infected nodose neurons", "test": "Patch clamp recording of octreotide on dissociated Nb-infected nodose neurons", "assay_type": "cell-based, Balb/c mice", "conditions": "for effect on number of action potentials at 2× rheobase: infected nodose neurons", "method": "as §1, §2, §3, §4, §5"}, "[2]": {"conditions": "octreotide 1 μM, listed as octreotide"}},
  "data": [
    {"smiles": "C[C@@H](O)[C@@H]1NC(=O)[C@H](CCCCN)NC(=O)[C@@H](Cc2c[nH]c3ccccc23)NC(=O)[C@H](Cc2ccccc2)NC(=O)[C@@H](NC(=O)[C@H](N)Cc2ccccc2)CSSC[C@@H](C(=O)N[C@H](CO)[C@@H](C)O)NC1=O", "note": "[Octreotide, octreotide]", "values": [
      {"measurement": "effect on RMP", "setting": "sham nodose neurons; sham neurons, octreotide 1 μM", "value": "no significant effect"},
      {"measurement": "resting membrane potential (RMP)", "setting": "sham nodose neurons; sham neurons, octreotide 1 μM, n=27", "value": "−54.7±2.1", "unit": "mV"},
      {"measurement": "number of action potentials evoked at 2× rheobase (FIG. 23 example)", "setting": "sham nodose neurons; sham nodose neuron, after 1 μM octreotide, control in Krebs 2", "value": 1, "unit": "action potential"},
      {"measurement": "effect on number of action potentials at 2× rheobase", "setting": "sham nodose neurons; octreotide 1 μM", "value": "reduced the number of action potentials"},
      {"measurement": "effect on number of action potentials at 2× rheobase", "setting": "sham nodose neurons; [2]", "value": "reduces the number of action potentials"},
      {"measurement": "difference between the effect of octreotide on sham and infected neurons (action potentials at 2× rheobase)", "setting": "[1]; 1 μM octreotide, sham vs infected, FIG. 24", "value": "no significant difference"},
      {"measurement": "effect on RMP", "setting": "[1]; infected neurons, octreotide 1 μM", "value": "no significant effect"},
      {"measurement": "resting membrane potential (RMP)", "setting": "[1]; infected neurons, octreotide 1 μM, n=25", "value": "−51.7±2.1", "unit": "mV"},
      {"measurement": "number of action potentials evoked at 2× rheobase (FIG. 23 example)", "setting": "[1]; infected nodose neuron, after 1 μM octreotide, control in Krebs 9", "value": 2, "unit": "action potentials"},
      {"measurement": "effect on number of action potentials at 2× rheobase", "setting": "[1]; octreotide 1 μM", "value": "reduced the number of action potentials"},
      {"measurement": "effect on number of action potentials at 2× rheobase", "setting": "[1]; [2]", "value": "reduces the number of action potentials"}
    ]}
  ]
}
